The subject of one data set is HCT-116. The data set can be described thus: Antiproliferative activity against human HCT116 cells harboring PI3CA H1047R mutant after 72 hrs by MTT assay. The conditions noted are these: HCT-116, 72 h. In kind it is functional, cell-based. A general note: Formazan colour is commonly taken as a measure of viable cells.
A further data set has as its system MCF7. Kind of data set: Antiproliferative activity against human MCF7 cells harboring PI3CA E545K mutant after 72 hrs by MTT assay. In kind it is functional, cell-based. To be noted: MCF7, 72 h.
For data set [1], the target named is Phosphatidylinositol 4,5-bisphosphate 3-kinase catalytic subunit alpha isoform (Homo sapiens, UniProt P42336). Kind of data set: Inhibition of PI3Kalpha (unknown origin) assessed as reduction in ATP depletion using lipid substrate after 40 mins by Kinase-Glo luminescent assay. On the technique in general: In Kinase-Glo more light means more ATP remaining.
Chain of Phosphatidylinositol 4,5-bisphosphate 3-kinase catalytic subunit alpha isoform (P42336 whole entry, canonical isoform): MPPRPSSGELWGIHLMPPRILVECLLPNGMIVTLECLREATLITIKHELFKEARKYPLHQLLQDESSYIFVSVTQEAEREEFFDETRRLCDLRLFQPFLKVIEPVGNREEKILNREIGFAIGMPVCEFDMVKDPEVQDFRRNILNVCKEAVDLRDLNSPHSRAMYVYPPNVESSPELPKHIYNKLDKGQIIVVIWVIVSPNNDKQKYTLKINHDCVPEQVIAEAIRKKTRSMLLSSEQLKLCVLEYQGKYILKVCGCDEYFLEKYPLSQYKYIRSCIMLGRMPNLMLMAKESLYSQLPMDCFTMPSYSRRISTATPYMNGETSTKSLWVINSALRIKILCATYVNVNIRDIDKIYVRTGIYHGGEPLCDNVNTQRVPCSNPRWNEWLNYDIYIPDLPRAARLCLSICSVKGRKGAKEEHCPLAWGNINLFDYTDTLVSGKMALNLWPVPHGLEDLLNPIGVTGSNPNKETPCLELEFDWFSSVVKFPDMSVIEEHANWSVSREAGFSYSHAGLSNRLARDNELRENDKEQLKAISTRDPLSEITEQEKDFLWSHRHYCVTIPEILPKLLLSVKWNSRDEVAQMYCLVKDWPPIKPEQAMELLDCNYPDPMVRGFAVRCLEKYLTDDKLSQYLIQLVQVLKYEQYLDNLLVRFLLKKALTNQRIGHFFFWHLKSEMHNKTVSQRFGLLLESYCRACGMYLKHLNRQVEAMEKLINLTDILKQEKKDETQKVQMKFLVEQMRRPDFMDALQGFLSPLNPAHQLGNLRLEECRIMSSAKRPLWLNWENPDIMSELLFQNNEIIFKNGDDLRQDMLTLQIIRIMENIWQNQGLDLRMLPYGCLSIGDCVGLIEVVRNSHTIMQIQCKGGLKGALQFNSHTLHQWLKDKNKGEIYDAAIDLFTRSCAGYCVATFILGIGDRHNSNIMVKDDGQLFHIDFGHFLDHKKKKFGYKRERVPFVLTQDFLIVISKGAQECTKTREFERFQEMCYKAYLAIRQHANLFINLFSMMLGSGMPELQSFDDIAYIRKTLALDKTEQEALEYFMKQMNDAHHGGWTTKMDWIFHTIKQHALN
The test system of data set [2] is CCRF S-180. Kind of data set: Antitumor activity against mouse S180 cells implanted in mouse assessed as tumor growth inhibition at 50 mg/kg, po qd for 8 days relative to control. In kind it is functional. To be noted: CCRF S-180, po, 192 h, read-out: TGI.
In data set [3] the test system is CCRF S-180. Kind of data set: Antitumor activity against mouse S180 cells implanted in mouse assessed as tumor growth inhibition at 15 mg/kg, po qd for 8 days relative to control. In kind it is functional. To be noted: CCRF S-180, po, 192 h, read-out: TGI.
The subject of data set [4] is CCRF S-180. Kind of data set: Antitumor activity against mouse S180 cells implanted in mouse assessed as tumor growth inhibition at 5 mg/kg, po qd for 8 days relative to control. Type of data set: functional. To be noted: CCRF S-180, po, 192 h, read-out: TGI.
Data set [5] has as its target T1, Phosphatidylinositol 4,5-bisphosphate 3-kinase catalytic subunit delta isoform (Homo sapiens, UniProt O00329).
T1 sequence (O00329 whole entry): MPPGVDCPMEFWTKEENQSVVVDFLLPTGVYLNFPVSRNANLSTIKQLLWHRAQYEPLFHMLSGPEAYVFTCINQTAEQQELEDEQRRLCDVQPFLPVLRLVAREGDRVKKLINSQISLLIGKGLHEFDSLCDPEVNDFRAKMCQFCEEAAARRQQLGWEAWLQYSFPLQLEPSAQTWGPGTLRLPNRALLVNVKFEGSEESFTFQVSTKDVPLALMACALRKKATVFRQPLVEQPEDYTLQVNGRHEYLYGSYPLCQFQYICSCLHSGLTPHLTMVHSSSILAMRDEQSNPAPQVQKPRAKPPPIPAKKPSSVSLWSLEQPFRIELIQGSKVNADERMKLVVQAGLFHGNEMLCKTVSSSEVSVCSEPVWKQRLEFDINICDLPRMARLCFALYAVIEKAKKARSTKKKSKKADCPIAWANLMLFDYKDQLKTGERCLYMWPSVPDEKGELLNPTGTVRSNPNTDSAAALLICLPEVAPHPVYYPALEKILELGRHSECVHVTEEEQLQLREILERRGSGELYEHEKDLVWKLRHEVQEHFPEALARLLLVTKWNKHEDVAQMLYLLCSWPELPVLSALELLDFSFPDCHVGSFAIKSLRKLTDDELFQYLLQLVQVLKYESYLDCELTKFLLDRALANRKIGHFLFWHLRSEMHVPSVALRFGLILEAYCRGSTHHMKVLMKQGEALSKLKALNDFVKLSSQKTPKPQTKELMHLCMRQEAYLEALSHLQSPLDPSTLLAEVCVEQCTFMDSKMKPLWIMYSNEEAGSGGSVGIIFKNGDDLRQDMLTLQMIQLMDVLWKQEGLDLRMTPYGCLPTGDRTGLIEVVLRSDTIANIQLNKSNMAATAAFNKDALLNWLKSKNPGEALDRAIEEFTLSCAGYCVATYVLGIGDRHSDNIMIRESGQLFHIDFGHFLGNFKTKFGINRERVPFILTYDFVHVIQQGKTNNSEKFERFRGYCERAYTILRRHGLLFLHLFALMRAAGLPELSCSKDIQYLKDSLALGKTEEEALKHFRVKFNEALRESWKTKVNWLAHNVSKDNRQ
The data set can be described thus: Inhibition of PI3Kdelta (unknown origin) assessed as reduction in ATP depletion using lipid substrate after 40 mins by Kinase-Glo luminescent assay.

Data set [6] deals with Phosphatidylinositol 4,5-bisphosphate 3-kinase catalytic subunit beta isoform (Homo sapiens, UniProt P42338). Kind of data set: Inhibition of PI3Kbeta (unknown origin) assessed as reduction in ATP depletion using lipid substrate after 40 mins by Kinase-Glo luminescent assay.
Chain of Phosphatidylinositol 4,5-bisphosphate 3-kinase catalytic subunit beta isoform (P42338 whole entry, canonical isoform): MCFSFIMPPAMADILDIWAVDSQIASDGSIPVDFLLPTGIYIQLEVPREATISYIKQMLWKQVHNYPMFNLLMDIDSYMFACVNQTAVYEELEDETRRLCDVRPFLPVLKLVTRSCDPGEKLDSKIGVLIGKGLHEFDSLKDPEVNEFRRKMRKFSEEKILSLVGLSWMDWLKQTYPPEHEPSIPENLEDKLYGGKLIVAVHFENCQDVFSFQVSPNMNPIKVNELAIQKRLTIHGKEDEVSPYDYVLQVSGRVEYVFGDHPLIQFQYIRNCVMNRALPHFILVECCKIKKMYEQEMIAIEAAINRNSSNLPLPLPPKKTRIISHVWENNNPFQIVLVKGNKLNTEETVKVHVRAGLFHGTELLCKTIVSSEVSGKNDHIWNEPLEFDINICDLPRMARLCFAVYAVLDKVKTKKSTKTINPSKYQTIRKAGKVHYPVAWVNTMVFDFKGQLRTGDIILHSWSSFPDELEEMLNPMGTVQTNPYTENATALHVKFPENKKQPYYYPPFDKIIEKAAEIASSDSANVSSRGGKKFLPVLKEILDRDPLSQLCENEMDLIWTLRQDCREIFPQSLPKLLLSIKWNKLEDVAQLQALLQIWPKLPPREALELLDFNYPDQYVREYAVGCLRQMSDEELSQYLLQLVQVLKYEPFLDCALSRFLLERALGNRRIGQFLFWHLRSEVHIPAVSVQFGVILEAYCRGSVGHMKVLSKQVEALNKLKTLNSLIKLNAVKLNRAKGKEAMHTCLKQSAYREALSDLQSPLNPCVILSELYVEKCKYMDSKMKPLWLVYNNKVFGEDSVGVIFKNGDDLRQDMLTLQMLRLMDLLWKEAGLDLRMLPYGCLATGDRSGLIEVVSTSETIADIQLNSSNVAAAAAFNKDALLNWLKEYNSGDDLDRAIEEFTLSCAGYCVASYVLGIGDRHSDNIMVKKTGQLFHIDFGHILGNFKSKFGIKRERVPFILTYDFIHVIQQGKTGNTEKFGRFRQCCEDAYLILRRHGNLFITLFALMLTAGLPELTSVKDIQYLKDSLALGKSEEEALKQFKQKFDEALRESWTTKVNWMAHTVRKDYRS
Data set [7] in a line: Toxicity in mouse implanted with mouse S180 cells assessed as body weight loss at 5 to 50 mg/kg, po qd for 8 days. To be noted: in vivo, 192 h. Type of data set: organism-based.
Data set [8] has as its target Phosphatidylinositol 4,5-bisphosphate 3-kinase catalytic subunit gamma isoform (Homo sapiens, UniProt P48736). The data set can be described thus: Inhibition of PI3Kgamma (unknown origin) assessed as reduction in ATP depletion using lipid substrate after 40 mins by Kinase-Glo luminescent assay.

Chain of Phosphatidylinositol 4,5-bisphosphate 3-kinase catalytic subunit gamma isoform (P48736 whole entry, canonical isoform): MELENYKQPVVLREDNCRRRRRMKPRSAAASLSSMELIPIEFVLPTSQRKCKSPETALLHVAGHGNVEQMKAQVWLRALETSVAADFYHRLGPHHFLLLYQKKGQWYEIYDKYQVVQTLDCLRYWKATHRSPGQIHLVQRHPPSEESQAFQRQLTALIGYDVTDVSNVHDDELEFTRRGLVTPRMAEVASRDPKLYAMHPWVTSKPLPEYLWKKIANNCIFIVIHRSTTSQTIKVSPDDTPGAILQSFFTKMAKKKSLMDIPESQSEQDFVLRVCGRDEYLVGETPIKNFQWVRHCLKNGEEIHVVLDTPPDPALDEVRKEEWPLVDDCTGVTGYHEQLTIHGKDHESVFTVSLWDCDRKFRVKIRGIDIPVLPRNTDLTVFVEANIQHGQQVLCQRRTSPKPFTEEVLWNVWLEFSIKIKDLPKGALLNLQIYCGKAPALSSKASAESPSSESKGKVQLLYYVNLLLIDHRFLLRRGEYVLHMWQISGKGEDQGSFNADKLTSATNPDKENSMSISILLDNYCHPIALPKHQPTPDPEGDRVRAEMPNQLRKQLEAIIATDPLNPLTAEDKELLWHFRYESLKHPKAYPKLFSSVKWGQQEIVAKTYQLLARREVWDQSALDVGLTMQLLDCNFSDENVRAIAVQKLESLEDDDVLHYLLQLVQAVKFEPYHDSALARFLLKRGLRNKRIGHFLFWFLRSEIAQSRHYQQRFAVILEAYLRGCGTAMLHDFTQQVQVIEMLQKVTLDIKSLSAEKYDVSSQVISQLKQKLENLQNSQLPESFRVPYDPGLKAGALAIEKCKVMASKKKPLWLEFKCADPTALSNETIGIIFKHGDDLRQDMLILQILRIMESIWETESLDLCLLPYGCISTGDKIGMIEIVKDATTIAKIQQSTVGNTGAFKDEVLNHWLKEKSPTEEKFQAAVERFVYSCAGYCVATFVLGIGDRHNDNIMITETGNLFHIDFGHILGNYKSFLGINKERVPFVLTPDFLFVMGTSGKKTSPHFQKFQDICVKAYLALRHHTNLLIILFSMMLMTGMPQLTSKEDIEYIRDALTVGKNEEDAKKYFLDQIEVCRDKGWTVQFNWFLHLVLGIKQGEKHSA

On to `COc1ccc(-c2ccc3ncnc(NCCN4CCCCC4)c3c2)cc1C(N)=O`, for which the IC50 in the data set with HCT-116 was 29.4 µM; in the data set on MCF7 it was 39.1 µM.
As for `COc1ccc(-c2ccc3ncnc(NCCN(C)C)c3c2)cn1`, the IC50 in the data set with HCT-116 came out at 15.8 µM; in the data set with MCF7 it was 2.97 µM.
With `COc1ncc(-c2ccc3ncnc(NCCN(C)C)c3c2)cc1C#N`, the values for the half-maximal inhibitory concentration (IC50) (in the data set on HCT-116; in [1]; in the data set with MCF7) were 0.56 µM, 3.01 µM and 3.23 µM, respectively.
On to `COc1ncc(-c2ccc3ncnc(OCCN(C)C)c3c2)cc1[N+](=O)[O-]`, for which the IC50 was 9.38 µM in the data set on HCT-116 and 7.26 µM with MCF7.
For `CCN(CC)CCNc1ncnc2ccc(-c3cnc(OC)c([N+](=O)[O-])c3)cc12`, in that order: 7.33 µM and 16.3 µM.
`COc1ccc(-c2ccc3ncnc(NCCN4CCCCC4)c3c2)cn1`: the results for the IC50 in the data set on HCT-116 and with MCF7 were 22.2 µM and 2.42 µM, respectively.
Consider `COc1ncc(-c2ccc3ncnc(NCCN4CCCCC4)c3c2)cc1C#N`, for which the IC50 was 2.68 µM in the data set on HCT-116 and 2.74 µM in the data set with MCF7.
Consider `COc1ncc(-c2ccc3ncnc(OCCN(C)C)c3c2)cc1C#N`, for which the IC50 was determined as 5.16 µM in the data set with HCT-116 and 6.68 µM in the data set with MCF7.
For `COc1ncc(-c2ccc3ncnc(NCCN4CCOCC4)c3c2)cc1C#N`, in the data set on CCRF S-180 [2], the inhibition in vivo at 50 mg/kg came to 68.4%. The inhibition in vivo at 15 mg/kg in the data set with CCRF S-180 [3] is 49%. In addition, the inhibition in vivo at 5 mg/kg with CCRF S-180 [4] was 33%. Besides, the IC50 was 0.037 µM in data set [5]; 0.3 µM in [6]; 0.51 µM with HCT-116; 0.465 µM in [1]; 0.934 µM in data set [8]; 2.1 µM with MCF7. Also, in data set [7], the Activity entry was “Non-Toxic”.
`COc1ncc(-c2ccc3ncnc(NCCN4CCOCC4)c3c2)cc1[N+](=O)[O-]`: the 50% inhibitory concentration (IC50) worked out at 1.8 µM in the data set with HCT-116 and 2.87 µM with MCF7.
With `COc1ncc(-c2ccc3ncnc(NCCN4CCCC4)c3c2)cc1C#N`, the IC50 amounted to 2.35 µM in the data set on HCT-116 and 6.22 µM with MCF7.
The corresponding values for `CCN(CC)CCNc1ncnc2ccc(-c3cnc(OC)c(C#N)c3)cc12` are 2.05 µM and 3.86 µM.
The corresponding values for `COc1ccc(-c2ccc3ncnc(NCCN4CCOCC4)c3c2)cn1` are 38.6 µM and 34.3 µM.
In the case of `COc1ncc(-c2ccc3ncnc(NCCN4CCCCC4)c3c2)cc1[N+](=O)[O-]`, the results for the IC50 (in the data set on HCT-116; in data set [1]; in the data set with MCF7) were 0.65 µM, 3.17 µM and 8.61 µM, respectively.
Regarding `COc1ccc(-c2ccc3ncnc(NCCN4CCOCC4)c3c2)cc1C(N)=O`, the IC50 in the data set on HCT-116 turned out to be 24.4 µM; with MCF7, 29.3 µM.
Consider `CCN(CC)CCNc1ncnc2ccc(-c3ccc(OC)nc3)cc12`, for which the values for the IC50 with HCT-116 and with MCF7 were 9.56 µM and 8.74 µM, respectively.
For `COc1ccc(-c2ccc3ncnc(NCCN4CCCC4)c3c2)cn1`, in that order: 3.91 µM and 10.1 µM.

Usually IC50 stands for the point on the concentration scale where inhibition reaches its midpoint.

Values taken from ChEMBL document CHEMBL4477271, “Synthesis and antitumor activity evaluation of 4,6-disubstituted quinazoline derivatives as novel PI3K inhibitors” (Bioorg Med Chem Lett, 2016).
